Conditions: rat, 6 hours after electroporation treatment, 800 V/cm, 12 pulses of 250 μs length
Protocol: FIG. 3 schematically illustrates a Gamma Camera image of a rat taken 6 hours after an electroporation treatment with electrical field strength of 800 V/cm and 12 pulses of 250 μs length. […] In FIG. 3, the injection site, the electroporation site and three reference sites are shown.
Further, investigation of the effect of applied electric pulses of 600, 800, 1000, 1200 V/cm; having 100 and 500 μs pulse length, and 2, 4, 6 or 12 pulses, on the accumulation of the radiolabeled pharmaceutical ^99mTc-DTPA that mimics the Bleomycin, in rat muscular tissue after in vivo electro-permeabilization has been performed. Gamma camera measurements is applied to noninvasively quantify the accumulation of ^99mTc-DTPA in the region treated with electrical pulses as previously described.

Question: With `O=C([O-])CN(CCN(CC(=O)[O-])CC(=O)[O-])CCN(CC(=O)[O-])CC(=O)[O-].[99Tc+4]` [99Tcm-DTPA, 99Tcm- diethylene-triamine-penta-acetic-acid] as the compound, how does the “activity in the electroporated site (Gamma Camera image)” value read?
Answer: high activity

Question: What about the “activity in the reference sites (Gamma Camera image)” value of the same compound?
Answer: low activity

— patent US11400283B2, “Pulse generating device for delivery of electrical pulses to a desired tissue of a mammal” (SC[…] AB, priority 2017, dated 2022)
